# Test results taken from ChEMBL document CHEMBL4842341, “Discovery of IACS-9779 and IACS-70465 as Potent Inhibitors Targeting Indoleamine 2,3-Dioxygenase 1 (IDO1) Apoenzyme” (J Med Chem, 2021).
# Experiments:
# [1] = in vitro; details: human, liver microsomes
# [2] = in vivo; details: NSG, mouse, tumor, po, 125 mg/kg
# [3] = in vivo; details: NSG, mouse, plasma, po, 125 mg/kg
# [4] = Drug concentration in plasma of NSG mouse xenografted with human SKOV3 cells at 3 mg/kg, po QD measured at 24 hrs post dose; assay type: ADME, organism-based, SK-OV-3
# [5] = Drug concentration in tumor of NSG mouse xenografted with human SKOV3 cells at 3 mg/kg, po QD measured at 24 hrs post dose; assay type: ADME, organism-based, Neoplasm, SK-OV-3; details: read-out: Drug uptake
# [6] = Apparent permeability across basolateral side to apical side in MDCK cells; assay type: ADME, cell-based, Canis lupus familiaris; details: dog
# [7] = Apparent permeability across basolateral side to apical side in MDCK-MDR1 cells; assay type: ADME, cell-based, Canis lupus familiaris; details: dog
# [8] = Apparent permeability across apical side to basolateral side in MDCK-MDR1 cells; assay type: ADME, cell-based, Canis lupus familiaris; details: dog
# [9] = in vitro; details: rat, liver microsomes
# [10] = Apparent permeability across apical side to basolateral side in wild type MDCK cells; assay type: ADME, cell-based, Canis lupus familiaris; details: dog
# [11] = in vivo; details: CD1, mouse, iv, 0.3 mg/kg
# [12] = in vivo; details: CD1, mouse, po, 10 mg/kg
# [13] = in vivo; details: CD1, mouse, po, 10 mg/kg; remark: listed apart in the source
# [14] = in vivo; details: CD1, mouse, iv, 0.3 mg/kg; remark: listed apart in the source
# [15] = in vivo; details: CD1, mouse, iv, 0.3 mg/kg; remark: listed apart in the source
# [16] = in vivo; details: CD1, mouse, iv, 0.3 mg/kg; remark: listed apart in the source
# [17] = in vivo; details: NSG, mouse, plasma, po, 125 mg/kg; remark: listed apart in the source
# [18] = in vivo; details: NSG, mouse, tumor, po, 125 mg/kg; remark: listed apart in the source
# [19] = Half life in mouse plasma; assay type: ADME, cell-free
# [20] = in vivo; details: CD-1, mouse, iv, 0.3 mg/kg
# [21] = Drug concentration in tumor of NSG mouse xenografted with human SKOV3 cells at 200 mg/kg, po BID measured after 12 hrs by LC-MS analysis; assay type: ADME, organism-based, Neoplasm, SK-OV-3; details: read-out: Drug uptake
# [22] = in vivo; details: CD-1, mouse, po, 10 mg/kg
# [23] = Drug concentration in plasma of NSG mouse xenografted with human SKOV3 cells at 200 mg/kg, po BID measured after 12 hrs by LC-MS analysis; assay type: ADME, organism-based, SK-OV-3
# [24] = in vivo; details: NSG, mouse, plasma, po, 125 mg/kg; remark: listed apart in the source
# [25] = in vivo; details: CD-1, mouse, iv, 0.3 mg/kg; remark: listed apart in the source
# [26] = in vivo; details: NSG, mouse, tumor, po, 125 mg/kg; remark: listed apart in the source
# [27] = in vivo; details: CD-1, mouse, iv, 0.3 mg/kg; remark: listed apart in the source
# [28] = in vivo; details: CD-1, mouse, po, 10 mg/kg; remark: listed apart in the source
# [29] = in vivo; details: CD-1, mouse, iv, 0.3 mg/kg; remark: listed apart in the source
structure (smiles),measurement,setting,value
CCC(NC(=O)c1ccc(Cl)cc1)[C@@H]1[C@@H]2C[C@@H](Oc3ccnc4ccc(F)cc34)C[C@@H]21 (some centres not stated),"CLint scaled at 0.75 h, 1 µM",[1],490 mL/min/kg
CCC(NC(=O)c1ccc(Cl)cc1)[C@H]1[C@@H]2C[C@@H](n3cnc(C4CC4)n3)C[C@@H]21 (some centres not stated),"CLint scaled at 0.75 h, 1 µM",[1],2 mL/min/kg
CCC(NC(=O)c1ccc(Cl)cc1)[C@H]1[C@@H]2C[C@@H](n3cnc4cccc(F)c4c3=O)C[C@@H]21 (some centres not stated),"CLint scaled at 0.75 h, 1 µM",[1],0.7 mL/min/kg
CC[C@@H](NC(=O)c1ccc(Cl)cc1)[C@H]1[C@@H]2C[C@@H](n3cnc4ccc(C#N)cc43)C[C@@H]21,concentration at 120 h,[2],12000 nM
same,concentration at 120 h,[3],10100 nM
C[C@@H](NC(=O)c1ccc(Cl)cc1)[C@H]1[C@@H]2C[C@@H](n3cnc4cc(F)c(F)cc43)C[C@@H]21,concentration at 120 h,[2],5100 nM
same,concentration at 120 h,[3],2800 nM
CCC(c1nc2cc(Cl)ccc2[nH]1)[C@H]1[C@@H]2C[C@@H](c3ccnc4ccc(F)cc34)C[C@@H]21 (some centres not stated),"CLint scaled at 0.75 h, 1 µM",[1],17 mL/min/kg
same,concentration at 24 h,[4],1900 nM
same,concentration at 24 h,[5],500 nM
CCC(NC(=O)c1ccc(Cl)cc1)[C@H]1[C@@H]2C[C@H](Oc3ccnc4ccccc34)C[C@@H]21 (some centres not stated),Papp B→A,[6],5.61 ×10⁻⁶ cm/s
same,"CLint scaled at 0.75 h, 1 µM",[1],316 mL/min/kg
same,Papp B→A,[7],2.07 ×10⁻⁶ cm/s
same,Papp A→B,[8],3.7 ×10⁻⁶ cm/s
same,"CLint scaled at 0.75 h, 1 µM",[9],956 mL/min/kg
same,Papp A→B,[10],5.53 ×10⁻⁶ cm/s
CCC(NC(=O)c1ccc(Cl)cc1)[C@H]1[C@@H]2C[C@@H](n3cnc4cc(F)cc(F)c43)C[C@@H]21 (some centres not stated),"CLint scaled at 0.75 h, 1 µM",[1],5.5 mL/min/kg
O=C(NC[C@H]1[C@H]2C[C@H](Oc3ccnc4ccc(F)cc34)C[C@@H]12)c1ccc(Cl)cc1,"CLint scaled at 0.75 h, 1 µM",[1],227 mL/min/kg
CC(NC(=O)c1ccc(C#N)cc1)[C@H]1[C@@H]2C[C@@H](Oc3ncnc4cc(F)ccc34)C[C@@H]21 (some centres not stated),Vd,[11],0.31 L/kg
same,"CLint scaled at 0.75 h, 1 µM",[1],17 mL/min/kg
same,Cmax,[12],44000 nM
same,bioavailability,[13],62%
same,clearance,[14],0.117 mL/min/kg
same,AUC(0-inf),[15],106 µM·h
same,half-life,[16],33 h
CCC(NC(=O)c1ccc(Cl)cc1)[C@H]1[C@@H]2C[C@@H](n3cnc4ncc(C#N)cc43)C[C@@H]21 (some centres not stated),"CLint scaled at 0.75 h, 1 µM",[1],4.5 mL/min/kg
CC[C@@H](NC(=O)c1ccc(C#N)cc1)[C@H]1[C@@H]2C[C@@H](n3cnc4cc(F)c(F)cc43)C[C@@H]21,concentration at 120 h,[17],49300 nM
same,concentration at 120 h,[18],52000 nM
CCC(NC(=O)c1ccc(Cl)cc1)[C@H]1[C@@H]2C[C@@H](NC(=O)c3cncc(F)c3)C[C@@H]21 (some centres not stated),"CLint scaled at 0.75 h, 1 µM",[1],13 mL/min/kg
CCC(NC(=O)c1ccc(Cl)cc1)[C@H]1[C@@H]2C[C@@H](n3cnc4ccc(F)c(F)c43)C[C@@H]21 (some centres not stated),"CLint scaled at 0.75 h, 1 µM",[1],18 mL/min/kg
O=C(Nc1ccc(Cl)cc1)N1CCC(CCc2ccnc3ccccc23)CC1,"CLint scaled at 0.75 h, 1 µM",[1],115 mL/min/kg
same,"CLint scaled at 0.75 h, 1 µM",[9],170 mL/min/kg
CCC(NC(=O)c1ccc(Cl)cc1)[C@H]1[C@@H]2C[C@@H](n3cnc4cc(F)cnc43)C[C@@H]21 (some centres not stated),"CLint scaled at 0.75 h, 1 µM",[1],0.46 mL/min/kg
CC[C@@H](NC(=O)c1ccc(Cl)cc1)[C@H]1[C@@H]2C[C@@H](n3cnc4ccc(Cl)cc43)C[C@@H]21,concentration at 120 h,[2],600 nM
same,concentration at 120 h,[3],500 nM
CC[C@@H](NC(=O)c1ccc(Cl)cc1)[C@H]1[C@@H]2C[C@@H](n3c(C)nc4ccc(F)cc43)C[C@@H]21,concentration at 120 h,[2],100 nM
same,concentration at 120 h,[3],10 nM
CCC(NC(=O)c1ccc(Cl)cc1)[C@H]1[C@@H]2C[C@@H](n3cc(C4CC4)nn3)C[C@@H]21 (some centres not stated),Vd,[11],1.04 L/kg
same,"CLint scaled at 0.75 h, 1 µM",[1],6.5 mL/min/kg
same,Cmax,[12],1500 nM
same,bioavailability,[13],22%
same,clearance,[14],4.67 mL/min/kg
same,AUC(0-inf),[15],2.8 µM·h
same,half-life,[16],2.7 h
CCC(NC(=O)c1ccc(Cl)cc1)[C@H]1[C@@H]2C[C@@H](n3cnc4ccncc43)C[C@@H]21 (some centres not stated),"CLint scaled at 0.75 h, 1 µM",[1],8.8 mL/min/kg
CCC(NC(=O)c1ccc(Cl)cc1)[C@H]1[C@@H]2C[C@@H](n3cnc4ccc(F)cc43)C[C@@H]21 (some centres not stated),"CLint scaled at 0.75 h, 1 µM",[1],11.8 mL/min/kg
CCC(NC(=O)c1ccc(Cl)cc1)[C@@H]1[C@@H]2C[C@H](Oc3ccnc4cc(F)ccc34)C[C@@H]21 (some centres not stated),"CLint scaled at 0.75 h, 1 µM",[1],32 mL/min/kg
O=C(C[C@H]1CC[C@@H](Oc2ccnc3ccccc23)CC1)Nc1ccc(Cl)cc1,"CLint scaled at 0.75 h, 1 µM",[1],44 mL/min/kg
same,"CLint scaled at 0.75 h, 1 µM",[9],455 mL/min/kg
O=C(Nc1ccc(Cl)cc1)C1CC12CCC(Oc1ccnc3ccccc13)CC2 (configuration not stated),"CLint scaled at 0.75 h, 1 µM",[1],171 mL/min/kg
same,"CLint scaled at 0.75 h, 1 µM",[9],137 mL/min/kg
CC[C@@H](NC(=O)c1ccc(Cl)c(F)c1)[C@H]1[C@@H]2C[C@@H](n3cnc4cc(F)c(F)cc43)C[C@@H]21,concentration at 120 h,[2],11000 nM
same,concentration at 120 h,[3],4100 nM
CCC(NC(=O)c1ccc(Cl)cc1)[C@@H]1[C@@H]2C[C@H](Oc3ccnc4ccncc34)C[C@@H]21 (some centres not stated),"CLint scaled at 0.75 h, 1 µM",[1],54 mL/min/kg
O=C(C[C@H]1CC[C@@H](c2ccccc2)CC1)Nc1ccc(Cl)cc1,"CLint scaled at 0.75 h, 1 µM",[1],681 mL/min/kg
same,"CLint scaled at 0.75 h, 1 µM",[9],884 mL/min/kg
CCC(NC(=O)c1ccc(Cl)cc1)[C@@H]1[C@@H]2C[C@@H](Oc3ccnc4ccccc34)C[C@@H]21 (some centres not stated),Papp B→A,[6],1.73 ×10⁻⁶ cm/s
same,half-life,[19],12.8 h
same,"CLint scaled at 0.75 h, 1 µM",[1],23 mL/min/kg
same,Papp B→A,[7],1.4 ×10⁻⁶ cm/s
same,Papp A→B,[8],1.86 ×10⁻⁶ cm/s
same,"CLint scaled at 0.75 h, 1 µM",[9],14 mL/min/kg
same,Papp A→B,[10],3.63 ×10⁻⁶ cm/s
O=C(NC[C@@H]1[C@H]2C[C@@H](Oc3ccnc4ccc(F)cc34)C[C@@H]12)c1ccc(Cl)cc1,"CLint scaled at 0.75 h, 1 µM",[1],38 mL/min/kg
Fc1cc2ncn([C@H]3C[C@@H]4[C@@H](CNC(c5ccc(Cl)cc5)C(F)(F)F)[C@@H]4C3)c2cc1F (some centres not stated),"CLint scaled at 0.75 h, 1 µM",[1],100 mL/min/kg
CCC(NC(=O)c1ccc(Cl)cc1)[C@@H]1[C@@H]2C[C@H](Oc3ccnc4cccnc34)C[C@@H]21 (some centres not stated),"CLint scaled at 0.75 h, 1 µM",[1],14 mL/min/kg
O=C(NC[C@H]1[C@H]2C[C@@H](Oc3ccnc4ccc(F)cc34)C[C@@H]12)c1ccc(Cl)cc1,"CLint scaled at 0.75 h, 1 µM",[1],39 mL/min/kg
CCC(NC(=O)c1ccc(Cl)cc1)[C@@H]1[C@@H]2C[C@H](Oc3ccnc4ccc(F)cc34)C[C@@H]21 (some centres not stated),Vd,[11],0.27 L/kg
same,Cmax,[12],51000 nM
same,bioavailability,[13],146%
same,clearance,[14],0.233 mL/min/kg
same,AUC(0-inf),[15],51 µM·h
same,half-life,[16],15 h
CC(C(=O)Nc1ccc(Cl)cc1)N1CC(COc2ccnc3ccccc23)C1 (configuration not stated),"CLint scaled at 0.75 h, 1 µM",[1],227 mL/min/kg
same,"CLint scaled at 0.75 h, 1 µM",[9],526 mL/min/kg
CC[C@@H](NC(=O)c1ccc(Cl)cc1)[C@H]1[C@@H]2C[C@@H](n3cnc4ccc(F)cc43)C[C@@H]21 (stereo in doubt; 56),concentration at 120 h,[17],600 nM
same,concentration at 120 h,[18],2300 nM
NS(=O)(=O)NCCNc1nonc1C(=NO)Nc1ccc(F)c(Br)c1 [EPACADOSTAT],Vd at 24 h,[20],7.5 L/kg
same,concentration at 12 h,[21],5000 nM
same,Cmax at 24 h,[22],2000 nM
same,concentration at 12 h,[23],690 nM
same,concentration at 120 h,[24],100 nM
same,AUC(0-inf) at 24 h,[25],0.21 µM·h
same,concentration at 120 h,[26],3200 nM
same,clearance at 24 h,[27],53.3 mL/min/kg
same,bioavailability at 24 h,[28],50%
same,half-life at 24 h,[29],1.6 h
same,"CLint scaled at 0.75 h, 1 µM",[9],32 mL/min/kg
O[C@H](C[C@H]1c2c(F)cccc2-c2cncn21)[C@H]1CC[C@H](O)CC1 [NAVOXIMOD],"CLint scaled at 0.75 h, 1 µM",[1],11 mL/min/kg
same,"CLint scaled at 0.75 h, 1 µM",[9],39 mL/min/kg
O=C1CC(c2c[nH]c3ccc(F)cc23)C(=O)N1 (configuration not stated) [PF-06840003],"CLint scaled at 0.75 h, 1 µM",[1],2.9 mL/min/kg
same,"CLint scaled at 0.75 h, 1 µM",[9],7.2 mL/min/kg
